# Reference: ChEMBL document CHEMBL5537139, “Promises of anionic calix[n]arenes in life science: State of the art in 2023” (Eur J Med Chem, 2024)
# Key:
# [1] = Binding affinity to trimethyl-lysine (unknown origin) assessed as dissociation constant; design: species or system Homo sapiens
# [2] = Binding affinity to Methyl-lysine (unknown origin) assessed as dissociation constant; design: species or system Homo sapiens
# [3] = Inhibition of influenza A virus A/H3N2 neuraminidase
# HT-29 = assay: Anticancer activity against human HT-29 cells assessed as reduction in cell viability incubated for 24 hrs by MTT assay; assay type: functional, cell-based; details: HT-29, 24 h
# Caco-2 = assay: Anticancer activity against human Caco-2 cells assessed as inhibition of cell viability; assay type: functional, cell-based
# bovine serum albumin = bovine serum albumin (Bos taurus, UniProt P02769); assay: Inhibition of bovine serum albumin at 1 uM by SPR analysis relative to control; details: cattle
# Sequence of bovine serum albumin (P02769 whole entry): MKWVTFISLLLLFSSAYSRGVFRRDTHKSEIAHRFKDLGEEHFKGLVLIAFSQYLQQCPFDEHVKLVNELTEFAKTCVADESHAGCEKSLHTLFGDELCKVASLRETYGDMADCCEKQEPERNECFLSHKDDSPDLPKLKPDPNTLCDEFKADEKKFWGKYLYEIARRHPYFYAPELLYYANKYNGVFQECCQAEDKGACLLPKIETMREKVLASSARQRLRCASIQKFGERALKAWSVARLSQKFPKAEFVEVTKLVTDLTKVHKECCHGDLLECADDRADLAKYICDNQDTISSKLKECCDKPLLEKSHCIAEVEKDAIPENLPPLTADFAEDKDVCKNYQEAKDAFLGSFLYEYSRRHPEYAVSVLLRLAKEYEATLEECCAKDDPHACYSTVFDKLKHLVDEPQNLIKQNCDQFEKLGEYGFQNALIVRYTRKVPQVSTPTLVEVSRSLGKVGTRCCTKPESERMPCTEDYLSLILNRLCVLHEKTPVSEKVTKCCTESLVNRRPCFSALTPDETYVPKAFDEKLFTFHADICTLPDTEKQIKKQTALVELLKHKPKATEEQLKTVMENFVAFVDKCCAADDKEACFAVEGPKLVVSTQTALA
smiles,measurement,setting,value
O=S(=O)(O)c1cc2c(O)c(c1)Cc1cc(S(=O)(=O)O)cc(c1O)Cc1cc(S(=O)(=O)O)cc(c1O)Cc1cc(S(=O)(=O)O)cc(c1O)C2,Kd,[1],27 µM
same,Kd,[2],15.6 µM
O=S(=O)(O)c1cc2c(O)c(c1)Cc1cc(S(=O)(=O)O)cc(c1O)Cc1cc(S(=O)(=O)O)cc(c1O)Cc1cc(S(=O)(=O)O)cc(c1O)Cc1cc(S(=O)(=O)O)cc(c1O)Cc1cc(S(=O)(=O)O)cc(c1O)Cc1cc(S(=O)(=O)O)cc(c1O)Cc1cc(S(=O)(=O)O)cc(c1O)C2,IC50,[3],6.4 µM
CCCCCCOc1c2cc(P(=O)(O)O)cc1Cc1cc(P(=O)(O)O)cc(c1OCCCCCC)Cc1cc(P(=O)(O)O)cc(c1OCCCCCC)Cc1cc(P(=O)(O)O)cc(c1OCCCCCC)C2,IC50,HT-29,8.79 µM
same,IC50,Caco-2,3.88 µM
CC[C@@]1(O)C(=O)OCc2c1cc1n(c2=O)Cc2cc3ccccc3nc2-1 [CAMPTOTHECIN],inhibition at 1 µM,bovine serum albumin,98%
COc1cccc2c1C(=O)c1c(O)c3c(c(O)c1C2=O)C[C@@](O)(C(=O)CO)C[C@@H]3O[C@H]1C[C@H](N)[C@H](O)[C@H](C)O1 [DOXORUBICIN],inhibition at 1 µM,bovine serum albumin,87%
CO[C@@]12[C@H](COC(N)=O)C3=C(C(=O)C(C)=C(N)C3=O)N1C[C@@H]1N[C@@H]12 [MITOMYCIN],inhibition at 1 µM,bovine serum albumin,94%
